Results as given in patent publication US20230159527A1, “COMPOUNDS AS BCL-2 INHIBITORS” (Fochon Pharmaceuticals, Ltd., priority 2020, published 2023).

The compounds below were run on Toledo cells (assay: Cell proliferation assay, Toledo cells (MTS, 72 h)). Details: Homo sapiens, Toledo cells, MTS, read-out: Toledo IC50.
Type: cell-based
Method in brief: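 IC50 was derived from 490 nm absorbance after a 2 h MTS step. Before that, compounds at 1.5–10000 nM final (nine points) acted on Toledo cells for 72 h at 37 °C, 5% CO2. Cells were seeded at 30000/well in 10% FBS RPMI-1640 and rested 4 h before dosing.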

Row | SMILES | IC50 [nM]
1 | CC(C)c1ccccc1[C@@H]1CCCN1C1CC2(CCN(c3ccc(C(=O)NS(=O)(=O)c4cc5c(c([N+](=O)[O-])c4)N[C@@H]([C@H]4CC[C@](C)(O)CC4)CO5)c(Oc4cc5cc[nH]c5nc4OC[C@H]4CCN4C(=O)OC(C)(C)C)c3)CC2)C1 (single isomer, unassigned) [Example D-213, tert-butyl (R)-2-(((5-(2-(((S)-3-((1r,4S)-4-hydroxy-4-methylcyclohexyl)-5-nitro-3,4-dihydro-2H-benzo[b][1,4]oxazin-7-yl)sulfonyl)carbamoyl)-5-(2-((R or S)-2-(2-isopropylphenyl)pyrrolidin-1-yl)-7-azaspiro[3.5]nonan-7-yl)phenoxy)-1H-pyrrolo[2,3-b]pyridin-6-yl)oxy)methyl)azetidine-1-carboxylate] | 1
2 | CC(C)c1ccccc1[C@@H]1CCC[C@@H]1N1CC2(CCN(c3ccc(C(=O)NS(=O)(=O)c4cnc(NC[C@H]5CC[C@](C)(O)CC5)c([N+](=O)[O-])c4)c(Oc4cc5cc[nH]c5nc4OC4COC4)c3)CC2)C1 (single isomer, unassigned) [Example A-162, N-((6-((((1r,4r)-4-hydroxy-4-methyl-cyclohexyl)methyl)amino)-5-nitro-pyridin-3-yl)sulfonyl)-4-(2-((1S,2S or 1R,2R)-2-(2-isopropylphenyl)cyclo-pentyl)-2,7-diazaspiro[3.5]nonan-7-yl)-2-((6-(oxetan-3-yloxy)-1H-pyrrolo [2,3-b]pyridin-5-yl)oxy)benzamide] | 1
3 | CC(C)c1ccccc1[C@@H]1CN(S(=O)(=O)C2CC2)CCN1C1CC2(CCN(c3ccc(C(=O)NS(=O)(=O)c4cc5c(c([N+](=O)[O-])c4)N[C@@H]([C@H]4CC[C@](C)(O)CC4)CO5)c(Oc4cnc5[nH]cc(F)c5c4)c3)CC2)C1 (single isomer, unassigned) [Example D-81, 4-(2-((R or S)-4-(cyclopropylsulfonyl)-2-(2-isopropylphenyl)piperazin-1-yl)-7-azaspiro[3.5]nonan-7-yl)-2-((3-fluoro-1H-pyrrolo[2,3-b]pyridin-5-yl)oxy)-N-(((S)-3-((1r,4S)-4-hydroxy-4-methylcyclohexyl)-5-nitro-3,4-dihydro-2H-benzo[b][1,4]oxazin-7-yl)sulfonyl)benzamide] | 1
4 | CC(C)c1ccccc1[C@@H]1CCCN1C1CC2(CCN(c3ccc(C(=O)NS(=O)(=O)c4cc5c(c([N+](=O)[O-])c4)N[C@@H]([C@H]4CC[C@](C)(O)CC4)CO5)c(Oc4cc5cc[nH]c5nc4OCC(F)(F)F)c3)CC2)C1 (single isomer, unassigned) [Example D-58, N-(((S)-3-((1r,4S)-4-hydroxy-4-methylcyclohexyl)-5-nitro-3,4-dihydro-2H-benzo[b][1,4]oxazin-7-yl)sulfonyl)-4-(2-((R or S)-2-(2-isopropylphenyl)pyrrolidin-1-yl)-7-azaspiro[3.5]nonan-7-yl)-2-((6-(2,2,2-trifluoroethoxy)-1H-pyrrolo[2,3-b]pyridin-5-yl)oxy) benzamide] | 1
5 | CC(C)c1ccccc1[C@@H]1CSCCN1C1CC2(CCN(c3ccc(C(=O)NS(=O)(=O)c4cc5c(c([N+](=O)[O-])c4)N[C@@H]([C@H]4CC[C@](C)(O)CC4)CO5)c(Oc4cnc5[nH]cc(F)c5c4)c3)CC2)C1 (single isomer, unassigned) [Example D-78, 2-((3-fluoro-1H-pyrrolo[2,3-b]pyridin-5-yl)oxy)-N-(((S)-3-((1r,4S)-4-hydroxy-4-methylcyclohexyl)-5-nitro-3,4-dihydro-2H-benzo[b] [1,4]oxazin-7-yl)sulfonyl)-4-(2-((R or S)-3-(2-isopropylphenyl)thiomorpholino)-7-azaspiro[3.5]nonan-7-yl)benzamide] | 1
6 | CC(C)c1ccccc1[C@@H]1CCCN1C1CC2(CCN(c3ccc(C(=O)NS(=O)(=O)c4cc5c(c([N+](=O)[O-])c4)N[C@H]([C@H]4CC[C@H](O)CC4)CO5)c(Oc4cnc5[nH]cc(F)c5c4)c3)CC2)C1 (single isomer, unassigned) [Example D-42, 2-((3-fluoro-1H-pyrrolo[2,3-b]pyridin-5-yl)oxy)-N-(((R)-3-((1r,4R)-4-hydroxycyclohexyl)-5-nitro-3,4-dihydro-2H-benzo[b][1,4]oxazin-7-yl)sulfonyl)-4-(2-((R or S)-2-(2-isopropylphenyl)pyrrolidin-1-yl)-7-azaspiro[3.5]nonan-7-yl)benzamide] | 1
7 | CC(C)c1ccccc1[C@@H]1CCCN1C1CC2(CCN(c3ccc(C(=O)NS(=O)(=O)c4cc5c(c([N+](=O)[O-])c4)N[C@@H]([C@H]4CC[C@](C)(O)CC4)CO5)c(Oc4cc5cc[nH]c5nc4O[C@H]4CCNC4)c3)CC2)C1 (single isomer, unassigned) [Example D-225, N-(((S)-3-((1r,4S)-4-hydroxy-4-methylcyclohexyl)-5-nitro-3,4-dihydro-2H-benzo[b][1,4]oxazin-7-yl)sulfonyl)-4-(2-((R or S)-2-(2-isopropylphenyl)pyrrolidin-1-yl)-7-azaspiro[3.5]nonan-7-yl)-2-((6-(((S)-pyrrolidin-3-yl)oxy)-1H-pyrrolo[2,3-b]pyridin-5-yl)oxy)benzamide] | 1
8 | CC(C)c1ccccc1[C@@H]1CCCN1C1CC2(CCN(c3ccc(C(=O)NS(=O)(=O)c4cc5c(c([N+](=O)[O-])c4)N[C@@H]([C@H]4CC[C@](C)(O)CC4)CO5)c(Oc4cc5cc[nH]c5nc4OC4CC4)c3)CC2)C1 (single isomer, unassigned) [Example D-67, 2-((6-cyclopropoxy-1H-pyrrolo[2,3-b]pyridin-5-yl)oxy)-N-(((S)-3-((1r,4S)-4-hydroxy-4-methylcyclohexyl)-5-nitro-3,4-dihydro-2H-benzo [b][1,4]oxazin-7-yl)sulfonyl)-4-(2-((R or S)-2-(2-isopropylphenyl)pyrrolidin-1-yl)-7-azaspiro[3.5]nonan-7-yl)benzamide] | 1
9 | CC(C)Oc1nc2[nH]ccc2cc1Oc1cc(N2CCC3(CC2)CC(N2CCC[C@H]2c2ccccc2C(C)C)C3)ccc1C(=O)NS(=O)(=O)c1cc2c(c([N+](=O)[O-])c1)N[C@@H]([C@H]1CC[C@](C)(O)CC1)CO2 (single isomer, unassigned) [Example D-66, N-(((S)-3-((1r,4S)-4-hydroxy-4-methylcyclohexyl)-5-nitro-3,4-dihydro-2H-benzo[b][1,4]oxazin-7-yl)sulfonyl)-2-((6-isopropoxy-1H-pyrrolo[2,3-b]pyridin-5-yl)oxy)-4-(2-((R or S)-2-(2-isopropylphenyl)pyrrolidin-1-yl)-7-azaspiro[3.5]nonan-7-yl)benzamide] | 1

Same assay, conditions: Homo sapiens, Toledo, read-out: Toledo IC50 (nM)

Row | SMILES | IC50 [nM]
10 | CC(C)c1ccccc1[C@@H]1CCCN1C1CC2(CCN(c3ccc(C(=O)NS(=O)(=O)c4ccc(NC[C@H]5CC[C@](C)(O)CC5)c([N+](=O)[O-])n4)c(Oc4cnc5[nH]ccc5c4)c3)CC2)C1 (single isomer, unassigned) [Example C-2, 2-((1H-pyrrolo[2,3-b]pyridin-5-yl)oxy)-N-((5-((((1r,4r)-4-hydroxy-4-methylcyclohexyl)methyl)amino)-6-nitropyridin-2-yl)sulfonyl)-4-(2-((R or S)-2-(2-isopropylphenyl)pyrrolidin-1-yl)-7-azaspiro[3.5]nonan-7-yl)benzamide] | 1
